# In patent US11725000B2, “Apoptosis inhibitors” (National Institute of Biological Sciences, Beijing, priority 2017, dated 2023):
# Tested on: U2OS_Bim cells
# Assay: Apoptosis inhibition assay (Bim-induced apoptosis, cell viability by ATP level)
# Type: cell-based
# Conditions: U2OS_Bim cells; estimated (*Est.) / preliminary results; numbering of Tables 4a/4b; read-out: EC50
# Outline: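 Apoptosis was triggered by doxycycline (0.1 μg/mL) induction of Bim, one hour after compound addition to U2OS_Bim cells. Survival was measured after 24 h from cellular ATP (CellTiter-Glo), relative to DMSO, with zVAD at 20 μM as rescue control. Data are duplicate means, some estimated from preliminary results.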
row,EC50 [nM],SMILES
1,1 to 1000,Cc1cc(-c2cc(F)c(=O)n(Cc3ccc4c(c3)OCN4C)c2)nc(S(=O)(=O)CCC(OCc2ccccc2F)c2ccccc2)n1 (centres unmarked) [Compound 353]
2,1 to 1000,Cc1cc(-c2cc(F)c(=O)n(Cc3ccc4c(c3)N(C)CO4)c2)nc(S(=O)(=O)CCC(OCc2ccccc2F)c2ccccc2)n1 (centres unmarked) [Compound 354]
3,1 to 1000,Cc1cc(-c2cc(F)c(=O)n(Cc3ccc4c(c3)CCCO4)c2)nc(S(=O)(=O)CCC(OCc2ccccc2F)c2ccccc2)n1 (centres unmarked) [Compound 355]
4,1 to 1000,Cc1cc(-c2cc(F)c(=O)n(Cc3ccc4c(c3)OCCN4)c2)nc(S(=O)(=O)CCC(OCc2ccccc2F)c2ccccc2)n1 (centres unmarked) [Compound 358]
5,1 to 1000,Cc1cc(-c2cc(F)c(=O)n(Cc3ccc4c(c3)NCCO4)c2)nc(S(=O)(=O)CCC(OCc2ccccc2F)c2ccccc2)n1 (centres unmarked) [Compound 359]
6,1 to 1000,Cc1cc(-c2cc(F)c(=O)n(Cc3ccc4c(c3)OCO4)c2)nc(S(=O)(=O)CCC(OCc2ccccc2F)c2ccccn2)n1 (centres unmarked) [Compound 383]
7,1 to 1000,Cc1cc(-c2cc(F)c(=O)n(Cc3ccc4c(c3)OCO4)c2)nc(S(=O)(=O)CCC(OCc2ccccc2F)c2cccnc2)n1 (centres unmarked) [Compound 384]
8,1 to 1000,Cc1cc(-c2cc(F)c(=O)n(Cc3ccc4c(c3)OCO4)c2)nc(S(=O)(=O)CCC(OCc2ccccc2F)c2ccncc2)n1 (centres unmarked) [Compound 385]
9,1 to 1000,Cc1cc(-c2cc(F)c(=O)n(Cc3ccc4c(c3)OCO4)c2)nc(S(=O)(=O)CCC(OCc2ccccc2F)c2cccn2C)n1 (centres unmarked) [Compound 386]
10,1 to 1000,Cc1cc(-c2cc(F)c(=O)n(Cc3ccc4c(c3)OCO4)c2)nc(S(=O)(=O)CCC(OCc2ccccc2F)c2cc3ccccc3n2C)n1 (centres unmarked) [Compound 387]
11,1 to 1000,Cc1cc(-c2cc(F)c(=O)n(Cc3ccc4c(c3)OCO4)c2)nc(S(=O)(=O)CCC(OCc2ccccc2F)c2ccco2)n1 (centres unmarked) [Compound 388]
12,1 to 1000,Cc1cc(-c2cc(F)c(=O)n(Cc3ccc4c(c3)OCO4)c2)nc(S(=O)(=O)CCC(OCc2ccccc2F)c2cccs2)n1 (centres unmarked) [Compound 389]
13,1 to 1000,Cc1cc(-c2cc(F)c(=O)n(Cc3ccc4c(c3)OCO4)c2)nc(S(=O)(=O)CCC(OCc2ccccc2F)c2cncs2)n1 (centres unmarked) [Compound 390]
14,1 to 1000,Cc1cc(-c2cc(F)c(=O)n(Cc3ccc4c(c3)OCO4)c2)nc(S(=O)(=O)CCC(OCc2ccccc2F)c2ccc3ncccc3c2)n1 (centres unmarked) [Compound 391]
15,1 to 1000,Cc1cc(-c2cc(F)c(=O)n(Cc3ccc4c(c3)OCO4)c2)nc(S(=O)(=O)CCC(OCc2ccccc2F)c2ccc3ccn(C)c3c2)n1 (centres unmarked) [Compound 392]
16,1 to 1000,Cc1cc(-c2cc(F)c(=O)n(Cc3ccc4c(c3)OCO4)c2)nc(S(=O)(=O)CCC(OCc2ccccc2F)c2ccc3ncn(C)c3c2)n1 (centres unmarked) [Compound 393]
17,1 to 1000,Cc1cc(-c2cc(F)c(=O)n(Cc3ccc4c(c3)OCO4)c2)nc(S(=O)(=O)CCC(OCc2ccccc2F)c2ccc3ccoc3c2)n1 (centres unmarked) [Compound 394]
18,1 to 1000,Cc1cc(-c2cc(F)c(=O)n(Cc3ccc4c(c3)OCO4)c2)nc(S(=O)(=O)CCC(OCc2ccccc2F)c2ccc3ncoc3c2)n1 (centres unmarked) [Compound 395]
19,1 to 1000,Cc1cc(-c2cc(F)c(=O)n(Cc3ccc4c(c3)OCO4)c2)nc(S(=O)(=O)CCC(OCc2ccccc2F)c2ccc3ncsc3c2)n1 (centres unmarked) [Compound 396]
20,1 to 1000,Cc1cc(-c2cc(F)c(=O)n(Cc3ccc4c(c3)OCO4)c2)nc(S(=O)(=O)CCC(OCc2ccccc2F)C2CCCOC2)n1 (centres unmarked) [Compound 399]
21,1 to 1000,Cc1cc(-c2cc(F)c(=O)n(Cc3ccc4c(c3)OCO4)c2)nc(S(=O)(=O)CCC(OCc2ccccc2F)C(C)(C)C)n1 (centres unmarked) [Compound 400]
22,1 to 1000,Cc1cc(-c2cc(F)c(=O)n(Cc3ccc4c(c3)OCO4)c2)nc(S(=O)(=O)CCC(OCc2ccncc2)c2ccccc2)n1 (centres unmarked) [Compound 401]
23,1 to 1000,Cc1cc(-c2cc(F)c(=O)n(Cc3ccc4c(c3)OCO4)c2)nc(S(=O)(=O)CCC(OCc2ccncc2)c2ccccc2)n1 (centres unmarked) [Compound 402]
24,1 to 1000,Cc1cc(-c2cc(F)c(=O)n(Cc3ccc4c(c3)OCO4)c2)nc(S(=O)(=O)CCC(OCc2cccn2C)c2ccccc2)n1 (centres unmarked) [Compound 403]
25,1 to 1000,Cc1cc(-c2cc(F)c(=O)n(Cc3ccc4c(c3)OCO4)c2)nc(S(=O)(=O)CCC(OCc2cncn2C)c2ccccc2)n1 (centres unmarked) [Compound 404]
26,1 to 1000,Cc1cc(-c2cc(F)c(=O)n(Cc3ccc4c(c3)OCO4)c2)nc(S(=O)(=O)CCC(OCc2cccs2)c2ccccc2)n1 (centres unmarked) [Compound 405]

# More lines, now with the values behind:
row,SMILES,EC50 [nM]
1,Cc1cc(-c2cc(F)c(=O)n(Cc3ccc4c(c3)N(C)CCN4C)c2)nc(S(=O)(=O)CCC(OCc2ccccc2F)c2ccccc2)n1 (centres unmarked) [Compound 347],1 to 1000
2,Cc1cc(-c2cc(F)c(=O)n(Cc3ccc4ccn(C)c4c3)c2)nc(S(=O)(=O)CCC(OCc2ccccc2F)c2ccccc2)n1 (centres unmarked) [Compound 348],1 to 1000
3,Cc1cc(-c2cc(F)c(=O)n(Cc3ccc4ccn(C)c4c3)c2)nc(S(=O)(=O)CCC(OCc2ccccc2F)c2ccccc2)n1 (centres unmarked) [Compound 349],1 to 1000
4,Cc1cc(-c2cc(F)c(=O)n(Cc3ccc4c(c3)CC(=O)N4)c2)nc(S(=O)(=O)CCC(OCc2ccccc2F)c2ccccc2)n1 (centres unmarked) [Compound 350],1 to 1000
5,Cc1cc(-c2cc(F)c(=O)n(Cc3ccc4c(c3)CC(=O)N4C)c2)nc(S(=O)(=O)CCC(OCc2ccccc2F)c2ccccc2)n1 (centres unmarked) [Compound 351],1 to 1000
6,Cc1cc(-c2cc(F)c(=O)n(Cc3ccc4c(c3)CCN4C)c2)nc(S(=O)(=O)CCC(OCc2ccccc2F)c2ccccc2)n1 (centres unmarked) [Compound 352],1 to 1000
7,Cc1cc(-c2cc(F)c(=O)n(Cc3ccc4c(c3)N(C)CCO4)c2)nc(S(=O)(=O)CCC(OCc2ccccc2F)c2ccccc2)n1 (centres unmarked) [Compound 356],1 to 1000
8,Cc1cc(-c2cc(F)c(=O)n(Cc3ccc4c(c3)OCCN4C)c2)nc(S(=O)(=O)CCC(OCc2ccccc2F)c2ccccc2)n1 (centres unmarked) [Compound 357],1 to 1000
9,Cc1cc(-c2cc(F)c(=O)n(Cc3ccnc(CCO)c3)c2)nc(S(=O)(=O)CCC(OCc2ccccc2F)c2ccccc2)n1 (centres unmarked) [Compound 360],1 to 1000
10,Cc1cc(-c2cc(F)c(=O)n(Cc3ccnc(N(C)CO)c3)c2)nc(S(=O)(=O)CCC(OCc2ccccc2F)c2ccccc2)n1 (centres unmarked) [Compound 361],1 to 1000
11,Cc1cc(-c2cc(F)c(=O)n(Cc3ccc4c(c3)OCO4)c2)nc(S(=O)(=O)CCCN2C(=O)Cc3ccccc32)n1 [Compound 362],1 to 1000
12,Cc1cc(-c2cc(F)c(=O)n(Cc3ccc4nnn(C)c4c3)c2)nc(S(=O)(=O)CCCN2C(=O)Cc3ccccc32)n1 [Compound 363],1 to 1000
13,Cc1cc(-c2cc(F)c(=O)n(Cc3ccc4c(c3)OCO4)c2)nc(S(=O)(=O)CCCC(=O)NC23CC4CC(CC(C4)C2)C3)n1 [Compound 364],1 to 1000
14,Cc1cc(-c2cc(F)c(=O)n(Cc3ccc4nnn(C)c4c3)c2)nc(S(=O)(=O)CCCC(=O)NC23CC4CC(CC(C4)C2)C3)n1 [Compound 365],1 to 1000
15,Cc1cc(-c2cc(F)c(=O)n(Cc3ccc4c(c3)OCO4)c2)nc(S(=O)(=O)CCCn2c(=O)oc3ccccc32)n1 [Compound 366],1 to 1000
16,Cc1cc(-c2cc(F)c(=O)n(Cc3ccc4nnn(C)c4c3)c2)nc(S(=O)(=O)CCCn2c(=O)oc3ccccc32)n1 [Compound 367],1 to 1000
17,Cc1cc(-c2ccc(=O)n(Cc3ccc4c(c3)OCCO4)n2)nc(S(=O)(=O)CCC(OCc2ccccc2F)c2ccccc2)n1 (centres unmarked) [Compound 368],1 to 1000

row,SMILES,EC50 [nM]
1,Cc1cc(-c2ccc(=O)n(Cc3ccc4nnn(C)c4c3)n2)nc(S(=O)(=O)CCC(OCc2ccccc2F)c2ccccc2)n1 (centres unmarked) [Compound 369],1 to 1000
2,Cc1cc(-c2cc(F)c(=O)n(Cc3ccc4c(c3)OCO4)c2)nc(S(=O)(=O)CCCC(=O)N(c2ccccc2)C2CCC2)n1 [Compound 370],1 to 1000
3,Cc1cc(-c2cc(F)c(=O)n(Cc3ccc4c(c3)OCO4)c2)nc(S(=O)(=O)CCCC(=O)N(c2ccccc2)C(C)(C)C)n1 [Compound 371],1 to 1000
4,Cc1cc(-c2cc(F)c(=O)n(Cc3ccc4c(c3)OCO4)c2)nc(S(=O)(=O)CCCC(=O)N(c2ccccc2)C2CC2)n1 [Compound 372],1 to 1000
5,Cc1cc(-c2cc(F)c(=O)n(Cc3ccc4nnn(C)c4c3)c2)nc(S(=O)(=O)CCCC(=O)N(c2ccccc2)C2CCC2)n1 [Compound 373],1 to 1000
6,Cc1cc(-c2cc(F)c(=O)n(Cc3ccc4nnn(C)c4c3)c2)nc(S(=O)(=O)CCCC(=O)N(c2ccccc2)C(C)(C)C)n1 [Compound 374],1 to 1000
7,Cc1cc(-c2cc(F)c(=O)n(Cc3ccc4nnn(C)c4c3)c2)nc(S(=O)(=O)CCCC(=O)N(c2ccccc2)C2CC2)n1 [Compound 375],1 to 1000
8,Cc1cc(-c2cc(F)c(=O)n(Cc3ccc4c(c3)OCO4)c2)nc(S(=O)(=O)CCCN(c2ccccc2)C2CCC2)n1 [Compound 376],1 to 1000
9,Cc1cc(-c2cc(F)c(=O)n(Cc3ccc4c(c3)OCO4)c2)nc(S(=O)(=O)CCCN(c2ccccc2)C(C)(C)C)n1 [Compound 377],1 to 1000
10,Cc1cc(-c2cc(F)c(=O)n(Cc3ccc4c(c3)OCO4)c2)nc(S(=O)(=O)CCCN(c2ccccc2)C2CC2)n1 [Compound 378],1 to 1000
11,Cc1cc(-c2cc(F)c(=O)n(Cc3ccc4nnn(C)c4c3)c2)nc(S(=O)(=O)CCCN(c2ccccc2)C2CCC2)n1 [Compound 379],1 to 1000
12,Cc1cc(-c2cc(F)c(=O)n(Cc3ccc4nnn(C)c4c3)c2)nc(S(=O)(=O)CCCN(c2ccccc2)C(C)(C)C)n1 [Compound 380],1 to 1000
13,Cc1cc(-c2cc(F)c(=O)n(Cc3ccc4nnn(C)c4c3)c2)nc(S(=O)(=O)CCCN(c2ccccc2)C2CC2)n1 [Compound 381],1 to 1000
14,Cc1cc(-c2cc(F)c(=O)n(Cc3ccc4c(c3)OCO4)c2)nc(S(=O)(=O)CCCC(=O)N(C(C)(C)C)C(C)(C)C)n1 [Compound 382],1 to 1000
15,Cc1cc(-c2cc(F)c(=O)n(Cc3ccc4c(c3)OCO4)c2)nc(S(=O)(=O)CCC(OCc2ccccc2F)C2CCCCC2)n1 (centres unmarked) [Compound 397],1 to 1000
16,Cc1cc(-c2cc(F)c(=O)n(Cc3ccc4c(c3)OCO4)c2)nc(S(=O)(=O)CCC(OCc2ccccc2F)C2CCCCN2C)n1 (centres unmarked) [Compound 398],1 to 1000
